Measured values from PubChem BioAssay (NCI).
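Method: 48-hour compound exposure of cells in 96-well plates, five concentrations, linear interpolation of endpoints. GI50 is the concentration that inhibits growth by half. TGI is the concentration that stops growth completely.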

Key:
Test in all cases: DTP human tumour cell line panel, 48 h
[1] = tested on: NCI-H522 lung
[2] = tested on: U251 CNS
[3] = tested on: A549 NSCLC
[4] = tested on: OVCAR-5 ovarian
[5] = tested on: UACC-257 melanoma
[6] = tested on: MDA-MB-231 breast
[7] = tested on: TK-10 renal
[8] = tested on: OVCAR-8 ovarian
[9] = tested on: OVCAR-3 ovarian
[10] = tested on: SF-268 CNS

| SMILES | GI50 [1] [µM] | TGI [1] [µM] | GI50 [2] [µM] | TGI [2] [µM] | GI50 [3] [µM] | TGI [3] [µM] | GI50 [4] [µM] | TGI [4] [µM] | GI50 [5] [µM] | TGI [5] [µM] | GI50 [6] [µM] | TGI [6] [µM] | GI50 [7] [µM] | TGI [7] [µM] | GI50 [8] [µM] | TGI [8] [µM] | GI50 [9] [µM] | TGI [9] [µM] | GI50 [10] [µM] | TGI [10] [µM] |
| --- | --- | --- | --- | --- | --- | --- | --- | --- | --- | --- | --- | --- | --- | --- | --- | --- | --- | --- | --- | --- |
| COc1cnc2c(c1)C(=O)c1c-2n(CCCn2ccnc2)c(=O)c2cc(Cl)ccc12 | 0.0276 | 10.1 | 0.0144 | 0.119 | 0.0663 | > 100 | 0.309 | 35 | 0.0904 | 1.91 | 1.27 | > 100 | 0.744 | > 100 | 0.0389 | 14.3 | 0.129 | 38.8 | 0.0343 | > 100 |
| CCC[C@H](N[C@@H]1CCc2cc(F)cc(F)c2C1)C(=O)Nc1cn(C(C)(C)CNCC(C)(C)C)cn1 | 15.7 | 56.1 | 15.7 | 58.7 | 23.2 | > 100 | 21.1 | > 77.7 | 13.2 | 37.7 | 10.2 | 29.3 | 21.8 | 72.7 | 27.5 | > 100 | 15.3 | 42.9 | 20.4 | > 100 |
| O=[N+]([O-])c1ccccc1N=Nc1c(O)[nH]c2ccccc12 |  | > 100 |  | > 58.2 |  | > 100 |  | > 100 |  | > 100 |  | > 47.3 |  | > 100 |  | > 53.5 |  | 31.7 |  | > 100 |
| CC(C)=CCc1c(O)cc(/C=C/c2cc(O)c3c(c2)C[C@@H]2C(C)(C)[C@H](O)[C@H](O)C[C@@]2(C)O3)cc1O | 0.363 | 2.86 | 0.0533 | > 5.28 | 0.249 | > 10 | 1.36 | > 7.96 | 2.62 | > 10 | 1.66 | > 10 | 0.479 | > 3.1 | 1.92 | > 10 | 1.5 | 5.11 | 1.11 | > 7.76 |
| CO[C@@H]1[C@@H](OC2OC(C)C(OC3CC(C)(O)C(OC(=O)CC(C)C)C(C)O3)C(N(C)C)C2O)[C@@H](CC=O)C[C@@H](C)C(=O)/C=C/C2O[C@H]2C[C@@H](C)OC(=O)C[C@H]1OC(C)=O (some centres not stated) |  | 36 |  | 35.7 |  | > 100 |  | 31.8 |  | 34 |  | 45.6 |  | 50.9 |  | > 100 |  | 40.5 |  | > 100 |
| CCc1c2c(nc3cc4c(cc13)OCO4)-c1cc3c(c(=O)n1C2)COC(=O)[C@@]3(CC)OC(=O)CN | < 0.01 | 0.239 | < 0.01 | 0.124 | < 0.01 | 0.149 | < 0.01 | 0.417 | < 0.0154 | 0.286 | 0.195 | 15 | 0.178 | 20 | < 0.01 | 0.131 | < 0.01 | 0.315 | < 0.01 |  |
| N#Cc1ccccc1C#C/C=C\C#Cc1ccc(OCCCNC(=O)c2cc3ccccc3[nH]2)cc1 | 13.9 | 32.3 | 10.7 | 22.5 | 22.9 | > 100 | 21.3 | 48.4 | 23 | > 100 | 13.3 | 28.1 | 15.7 | 34 | 16.2 | 36.9 | 18.2 | 41.4 | 30.6 | > 100 |
| CC(=O)O[C@@H]1CO[C@H]2O[C@H]3[C@@H](C(C=O)=C[C@H](O)[C@@H]4C5=C(C(C)C)CC[C@]5(C)CC[C@@]34C)[C@@]2(O)C1=O |  | 0.24 |  | 0.55 |  | 5.57 |  | 1.12 |  | 0.629 |  | 0.407 |  | 0.596 |  | 0.52 |  | 0.278 |  | 0.667 |
| O=Cc1ccc(-c2ccc(-c3ccc(C=O)s3)o2)s1 |  | 29.5 |  | > 50.8 |  | > 100 |  | 11 |  | 16.2 |  | > 100 |  | 7.33 |  | > 100 |  | 5.89 |  | > 100 |
| CN1C(=O)CNC(=O)[C@H](NC(=O)c2nc3ccccc3cc2O)CSSC[C@H]1C(=O)NCCc1nc2ccccc2cc1O | 2.38 | 7.46 | 16.5 | 43 | 32.5 | > 100 | 24.9 | 62.1 | 17.1 | 72.9 | 5.42 | 27.7 | 20.5 | 47.3 | 20.8 | 53.9 | 4.61 | 18.2 | 4.19 | 37.9 |
| O=C(Nc1cc(C(F)(F)F)ccc1F)Nc1n[nH]c2ccccc12 | > 100 | > 100 | > 100 | > 100 | > 100 | > 100 | > 100 | > 100 | > 100 | > 100 | > 100 | > 100 | > 100 | > 100 | > 100 | > 100 | > 100 | > 100 | > 100 | > 100 |
| O=C(Nc1ccc(Br)cc1)Nc1n[nH]c2ccccc12 | 55 | > 100 | > 91.2 | > 100 | > 62.7 | > 100 | > 100 | > 100 | > 100 | > 100 | > 50.3 | > 100 |  | > 26.7 | 71.2 | > 100 | > 100 | > 100 | > 46 | > 100 |
| CN1CCN(c2ccc3nc(-c4cc(C(C)(C)C)c(O)c(C(C)(C)C)c4)[nH]c3c2)CC1 | 2.11 | 4.33 | 2.92 | 8.59 | 3.26 | 11.5 | 3.53 | 12 | 2 | 3.97 | 2.09 | 4.31 | 4.79 | 17.2 | 5 | 19.1 | 4.06 | 14 | 2.62 | 7.14 |
| CC(=O)OC1COC(S[As](C)C)C(OC(C)=O)C1OC(C)=O (configuration not stated) | 0.0321 | 0.139 | 0.639 | 5.24 | 3.51 | > 32.4 | 0.226 | 1.8 | 2.61 |  | 0.512 | 2.86 | 0.08 | 0.832 | 0.735 | 5.31 | < 0.0138 | 0.0404 | 1.23 | 11.6 |
| CS(=O)(=O)CCNCc1ccc(-c2ccc3ncnc(Nc4ccc(OCc5cccc(C(F)(F)F)c5)cc4)c3c2)o1 | 4.8 | 8.91 | 4.22 | 9.51 | 6.49 | > 25 | 9.03 | 24.3 | 3.79 | 7.49 | 6.34 | 14.1 | 3.17 | 11.1 | 6.91 | > 21.9 | 5.15 | 11.2 | 4.54 | 9.82 |
| COc1cc(CSc2nc3ccc(C)cc3c(=O)n2Cc2ccccc2)cc(OC)c1OC | 0.327 | 2.53 | 3.2 | 20.8 | 1.72 | > 100 | 4.82 | > 100 | 6.73 | > 100 | 3.26 | > 100 | 6.47 | 47.9 | 4.41 | > 100 | 0.956 | 7.02 | 5.01 | > 100 |
| COC(=O)CCC(=O)c1c(C)[nH]c(/C=C2\N=C(c3ccc[nH]3)C=C2OC)c1C | 1.13 | 2.86 | 1.08 | 3.2 | 3.08 | 10.8 | 1.48 | 5.52 | 2.27 | 6.37 | 0.385 | 2.64 | 1.18 | 7.74 | 0.754 | 2.23 | 0.353 | 1.7 | 1.03 | 3.1 |
| COc1cc(-c2[nH]ccc2Cl)oc1C1=C2N=C3C=C2C(C(C)C)C1CCCCCCCC3 (configuration not stated) |  | 1.58 |  | 1.89 |  | 2.88 |  | 2.05 |  | 3.18 |  | 1.56 |  | 5.19 |  | 1.83 |  | 2.05 |  | 4.1 |
| COCCOC(=O)C1=C(C)NC2=C(C(=O)CC(c3ccccc3OC)C2)C1c1cccc(O)c1 (configuration not stated) | 6.47 | 33.6 | 16.3 | > 72.2 | 13.1 | > 72.2 | 23.3 | > 100 | 8.8 | 61.1 | 13 | > 72.8 | 4.26 | 30.7 | 11.3 | 34.9 | 9.13 | 23.9 | 15.8 | 53.4 |
| CCCCCCCCCCCCCCCc1cc(O)ccc1N | 0.127 | 0.452 | > 80.2 | > 100 | > 100 | > 100 | 28 | > 100 | 11.3 | > 80.1 | > 31.1 | > 100 | > 63 | > 100 | 43.5 | > 100 | 5.1 | > 27.9 | 4.33 | 23.9 |
| COc1ccc(-c2n[nH]nc2-c2csc3ccccc23)cc1OC | 0.601 | 2.81 | 2.19 | 11.4 | 4.52 | 70.9 | 7.91 | > 100 | 10.9 | 55.6 | 3.21 | 35.5 | 2.98 | 19.8 | 4.24 | 39.1 | 1.94 | 7.63 | 3.69 | 41.8 |
| COc1ccc2[nH]cc(-c3nc(-c4cn(C)c5ccncc45)cs3)c2c1 | 1.74 | 3.52 | 1.91 | 3.42 | 1.79 | 3.43 | 2 | 3.6 | 16.7 | 33.3 | 1.87 | 3.4 | 1.48 | 3.12 | 2.19 | 4.94 | 1.85 | 3.41 | 1.91 | 3.61 |
| COC(CCP(=O)(c1ccccc1)c1ccccc1)(C(=O)c1ccccc1)c1ccccc1 (configuration not stated) | 4.71 | 26 | 5.5 | 18.4 | 3.77 | 16.5 | 10.1 | 23.7 | 3.11 | 11.8 | 2.69 | 17 | 2.94 | 14.1 | 7.95 | 27.8 | 5.26 | 18.2 | 10.2 | 21.9 |
| COc1cc(OC)c2c(=O)c(O)c(-c3ccc(OC)c(OC)c3)oc2c1 |  | > 31.6 |  | > 100 |  | > 100 |  | > 100 |  | > 100 |  | > 100 |  | > 100 |  | > 100 |  | > 100 |  | > 31.6 |
| C=C=C(C)[Si](C)(C)C |  | > 100 |  | > 100 |  | > 100 |  | > 100 |  | > 100 |  | > 100 |  | > 100 |  | > 100 |  | > 100 |  | > 100 |
| O=C1OC(c2ccc(O)c(-c3ccccc3)c2)(c2ccc(O)c(-c3ccccc3)c2)c2c(Cl)c(Cl)c(Cl)c(Cl)c21 |  | > 100 |  | > 100 |  | > 100 |  | > 100 |  | > 100 |  | > 100 |  | > 100 |  | > 100 |  | > 100 |  | > 100 |
| Cc1nn(C(=O)c2ccc(Cl)cc2)c2c1C(c1ccc([N+](=O)[O-])cc1)SC(N)=N2 (configuration not stated) |  | > 10 |  | > 10 |  | > 10 |  | > 10 |  | > 10 |  | > 10 |  | > 10 |  | > 10 |  | > 10 |  | > 10 |
